In this assay the test system is mCRPC CWR-R1ca-Luc cells. The assay can be described thus: mCRPC recurrence prevention study after neoadjuvant DTX and ENZ and primary tumor excision. It is filed as in vivo, athymic male nude mice. The following applies: 60 days. As for the experimental part: For the recurrence prevention study, nineteen 7–8-week-old athymic male nude mice (Strain Foxn^nu-Foxn^1+) were xenografted with 2 × 10^6 the mCRPC CWR-R1ca-Luc cells at the suprascapular region in 100 µL 1:1 serum-free Dulbecco’s Modified Eagle Medium (DMEM) medium-Matrigel. Mice were fed on an HFD (11.4% total fat, Cat# 7004, Envigo/Teklad, Madison, WI, USA) for 7 days before the tumor cells xenografting. When the tumors reached 100 mm^3, mice were subjected to weekly IV injections of 10 mg/kg docetaxel (DTX) (Combi-Blocks, San Diego, CA, USA) dissolved in Tween 80 (20 mg/mL) for four consecutive weeks, followed by daily IP injections of 5 mg/kg ENZ (Combi-Blocks, San Diego, CA, USA) in sterile PBS for three weeks. Following these neoadjuvant regimens, mice were randomly selected and placed into three groups. Groups 1 (n = 7) received daily oral doses of 20 mg/kg PsA (prepared in sterile PBS-DMSO 925:75). Group 2 (n = 5) received daily oral PsA 10 mg/kg. Group 3 (n = 7) received daily oral doses of PsA-free vehicle control. Treatments continued for 60 days. Isoflurane-anesthetized mice were subjected to weekly tumor monitoring using PerkinElmer IVIS Lumina Series III (Waltham, MA, USA) 30 min after an IP injection of (+)-luciferin (75 mg/kg, IP, PerkinElmer, Waltham, MA, USA) for efficiency assessment of excision surgery, tumor progression, and tumor metastasis. Following treatment regimen completion, mice were anesthetized using isoflurane (USP-vaporizer method, Matrix VIP-3000), exposure of animals in an anesthesia chamber at 3% isoflurane vaporization rate. Exposure time 2 min. Mice were then euthanized by cervical dislocation according to the American Veterinary Medical Association (AVMA) Guidelines for the Euthanasia of Animals: 2020 Edition, and tumors were collected. Tumors were snap frozen using Isopentane (J.T. Baker, Radnor, PA, USA) in liquid nitrogen before storage at −80 °C.

“And” between values parts separate entries of the source, which are not always exact repeats. Identical values can stand only once.

Consider `CC/C=C\[C@H](O)[C@H](O)C1=C(C)C(=O)[C@]2(O1)C(=O)N[C@@](OC)(C(=O)c1ccccc1)[C@@H]2O` [PsA, pseurotin A], for which, where the note is “PsA 10 mg/kg daily oral, n = 5”, the “Distant recurrence Backbone, affected mice per group” value was 1/5; the “Distant recurrence Brain, affected mice per group” value is on record as 2/5; the “Distant recurrence Femur, affected mice per group” value is 1/5; the “Distant recurrence Heart, affected mice per group” value is on record as 1/5. Further, under “PsA 10 mg/kg daily oral, n = 5”, the “Distant recurrence Kidney, affected mice per group” value is recorded as 0/5; the “Distant recurrence Liver, affected mice per group” value is on record as 1/5; the “Distant recurrence Lung, affected mice per group” value is 1/5; the “Distant recurrence Spleen, affected mice per group” value is 1/5. Further, where the note is “PsA 10 mg/kg daily oral, n = 5”, the “Locoregional recurrence, affected mice per group” value is “one and 1/5”. For the same compound, under “PsA 20 mg/kg daily oral, n = 7”, the “Distant recurrence Backbone, affected mice per group” value is 0/7; the “Distant recurrence Brain, affected mice per group” value is recorded as 2/7; the “Distant recurrence Femur, affected mice per group” value is on record as 1/7; the “Distant recurrence Heart, affected mice per group” value was 0/7. Moreover, under “PsA 20 mg/kg daily oral, n = 7”, the “Distant recurrence Kidney, affected mice per group” value is reported as 0/7; the “Distant recurrence Liver, affected mice per group” value is reported as 1/7; the “Distant recurrence Lung, affected mice per group” value is reported as 0/7; the “Distant recurrence Spleen, affected mice per group” value is recorded as 0/7. Further, the “Locoregional recurrence, affected mice per group” value (PsA 20 mg/kg daily oral, n = 7) was “one and 1/7”.

Values taken from publication PMC12525728, “Safety, Pharmacokinetics, Translational and Molecular Mechanistic Insights on the Prostate Cancer Recurrence Suppressor Pseurotin A” (Molecules, 2025).
